Key:
[1] = system: MLLr leukemia cell line MV4-11; test: Cell proliferation assay MV4;11 (CellTiter-Glo, 72 hours); type: cell-based; details: Homo sapiens; MV4-11 cells, 72 hours, CellTiter-Glo; read-out: MV4; 11 IC50
Method in brief: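 Cells in IMDM/10% FBS, seeded from a 15,000 cells/ml suspension, were exposed for 72 h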

Menin-MLL = molecular target: T1, Menin-MLL (Homo sapiens, UniProt O00255); test: Determination of binding constants to Menin-MLL (HTRF, EC50 and Ki); details: 0.25 nM H-FL-Menin, 3.2 nM FITC-MLL-4-43, 24 hr incubation
T1 sequence (O00255 1-610): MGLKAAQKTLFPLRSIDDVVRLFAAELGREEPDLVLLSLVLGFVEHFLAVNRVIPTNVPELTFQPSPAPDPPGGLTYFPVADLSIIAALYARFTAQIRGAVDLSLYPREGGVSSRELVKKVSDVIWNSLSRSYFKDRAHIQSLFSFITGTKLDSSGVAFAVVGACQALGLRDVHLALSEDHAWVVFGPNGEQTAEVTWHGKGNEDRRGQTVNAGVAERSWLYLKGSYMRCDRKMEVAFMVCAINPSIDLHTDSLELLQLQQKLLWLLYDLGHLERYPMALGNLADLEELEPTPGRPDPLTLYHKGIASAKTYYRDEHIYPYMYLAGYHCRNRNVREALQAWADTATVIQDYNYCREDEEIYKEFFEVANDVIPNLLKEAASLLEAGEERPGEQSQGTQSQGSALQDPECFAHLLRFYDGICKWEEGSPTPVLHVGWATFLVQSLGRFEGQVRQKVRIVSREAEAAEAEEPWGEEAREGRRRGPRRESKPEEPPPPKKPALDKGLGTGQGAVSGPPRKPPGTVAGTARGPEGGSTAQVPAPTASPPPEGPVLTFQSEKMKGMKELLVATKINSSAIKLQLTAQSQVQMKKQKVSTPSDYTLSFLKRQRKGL

[2] = molecular target: T2, human Menin and N-terminal portion of human MLL (amino acids 4-43) (Homo sapiens, UniProt O00255); test: Menin-MLL competition assay (HTRF); type: binding; details: 1 hr incubation
T2 construct: H-FL-Menin diluted to 4 nM in assay buffer
T2 sequence (O00255 1-610): T1 sequence (O00255 1-610)
Method in brief: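 HTRF competition: 1 nM His-tagged full-length Menin with 2 nM Tb-anti-His6 and 1 nM FITC-MLL(4-43), 1 h at room temperature in Tris pH 7.4 buffer with DTT, BSA, Triton X-100; 3.16-fold compound series, 2% DMSO. Ratio 520/485 normalized to DMSO and 1 μM reference-compound controls for IC50.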

hERG = hERG (Homo sapiens, UniProt Q12809); test: Patch clamp assay (hERG tail currents, whole-cell)
Chain of hERG (Q12809 whole entry): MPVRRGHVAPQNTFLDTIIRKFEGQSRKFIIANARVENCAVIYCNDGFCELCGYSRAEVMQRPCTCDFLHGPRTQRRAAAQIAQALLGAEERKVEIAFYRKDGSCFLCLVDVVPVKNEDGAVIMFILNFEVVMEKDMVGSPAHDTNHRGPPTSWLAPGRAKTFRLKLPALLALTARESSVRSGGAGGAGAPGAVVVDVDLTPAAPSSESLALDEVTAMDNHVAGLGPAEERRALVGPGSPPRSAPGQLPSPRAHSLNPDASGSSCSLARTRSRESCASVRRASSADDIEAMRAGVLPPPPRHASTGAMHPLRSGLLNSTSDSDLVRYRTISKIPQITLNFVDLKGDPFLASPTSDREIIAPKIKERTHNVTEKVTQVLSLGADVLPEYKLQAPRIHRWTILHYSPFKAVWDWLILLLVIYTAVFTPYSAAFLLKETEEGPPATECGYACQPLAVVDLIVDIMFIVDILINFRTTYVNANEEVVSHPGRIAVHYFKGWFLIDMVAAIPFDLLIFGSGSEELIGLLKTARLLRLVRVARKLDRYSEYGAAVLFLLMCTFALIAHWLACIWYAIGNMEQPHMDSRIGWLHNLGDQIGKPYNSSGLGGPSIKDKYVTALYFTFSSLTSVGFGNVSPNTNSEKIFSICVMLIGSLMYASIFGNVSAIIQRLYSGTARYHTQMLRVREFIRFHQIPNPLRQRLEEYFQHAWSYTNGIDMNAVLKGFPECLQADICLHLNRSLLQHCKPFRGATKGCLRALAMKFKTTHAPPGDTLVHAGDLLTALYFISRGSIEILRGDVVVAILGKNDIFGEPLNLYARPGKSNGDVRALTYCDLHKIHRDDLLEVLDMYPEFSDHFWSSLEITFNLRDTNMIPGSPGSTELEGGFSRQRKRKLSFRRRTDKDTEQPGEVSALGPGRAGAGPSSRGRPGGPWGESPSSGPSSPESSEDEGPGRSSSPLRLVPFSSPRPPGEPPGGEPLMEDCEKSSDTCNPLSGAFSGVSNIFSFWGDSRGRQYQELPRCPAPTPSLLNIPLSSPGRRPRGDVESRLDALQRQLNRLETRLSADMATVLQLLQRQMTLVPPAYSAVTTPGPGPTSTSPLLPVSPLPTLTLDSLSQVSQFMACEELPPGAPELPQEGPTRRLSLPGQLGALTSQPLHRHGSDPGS
Description: The 35 mm culture dishes upon which cells were seeded at a density allowing single cells to be recorded were placed on the dish holder of the microscope and continuously perfused (at approximately 1 mL/min) with the bath solution described in section 4.6. All solutions applied to cells including the pipette solution were maintained at room temperature (19° C. to 30° C.). After formation of a Gigaohm seal between the patch electrodes and individual hERG stably transfected HEK 293 cells (pipette resistance range: 2.0 MS to 7.0 MS; seal resistance range: >1GΩ) the cell membrane across the pipette tip was ruptured to assure electrical access to the cell interior (whole-cell patch-configuration). In case the quality of the seal was poor, the process of seal formation was repeated with a different cell and a new pipette. As soon as a stable seal could be established, hERG outward tail currents were measured upon depolarization of the cell membrane to +20 mV for 2 s (activation of channels) from a holding potential of −80 mV and upon subsequent repolarization to −40 mV for 3 s. This voltage protocol (as shown below) was run at least 10 times at intervals of 10 s. If current density was judged to be too low for measurement, another cell was recorded.
During wash-in of the test item the voltage protocol indicated above was run continuously again at 10 s intervals until the steady-state level of block was reached.
The IC50 was determined by fitting the dose response curve with a 2-parameter logistic function (amax=100%).

SMILES	IC50 [1]	IC50 [2]	hERG % Remaining (hERG; 10 μM compound)	hERG % Remaining (hERG; 30 μM compound)	other results
CCS(=N)(=O)N[C@@H]1CC[C@@H](CN2CCC3(CC2)CN(c2ncncc2Oc2ccc(F)cc2C(=O)N(C(C)C)C(C)C)C3)OC1 (mixture of isomers) [Example 225, 2-((4-(7-(((2S,5R)-5-(Ethylsulfonoamidimidamido)tetrahydro-2H-pyran-2-yl)methyl)-2,7-diazaspiro[3.5]nonan-2-yl)pyrimidin-5-yl)oxy)-5-fluoro-N,N-diisopropylbenzamide]	0.1 to 1 µM	–	–	–	Ki (Menin-MLL): < 0.001 µM
CCS(=O)(=O)N[C@@H]1CC[C@@H](CN2CCC3(CC2)CN(c2ncncc2Oc2ccc(F)cc2C(=O)N(C(C)C)[C@H]2C[C@H](C(F)F)C2)C3)OC1 [Example 246, N-((1r,3r)-3-(Difluoromethyl)cyclobutyl)-2-((4-(7-(((2S,5R)-5-(ethylsulfonamido)tetrahydro-2H-pyran-2-yl)methyl)-2,7-diazaspiro[3.5]nonan-2-yl)pyrimidin-5-yl)oxy)-5-fluoro-N-isopropylbenzamide]	< 0.1 µM	–	–	–	Ki (Menin-MLL): < 0.001 µM
CCN(C(=O)c1cc(F)ccc1Oc1cncnc1N1CC2(CCN(C[C@@H]3CC[C@@H](NS(=O)(=O)C4CCOC4)CO3)CC2)C1)C(C)C (stereo partly drawn) [Example 10, N-Ethyl-5-fluoro-N-isopropyl-2-((4-(7-(((2S,5R)-5-((tetrahydrofuran)-3-sulfonamido)tetrahydro-2H-pyran-2-yl)methyl)-2,7-diazaspiro[3.5]nonan-2-yl)pyrimidin-5-yl)oxy)benzamide]	< 0.1 µM	< 0.1 µM	–	–	–
CCN(C(=O)c1cc(F)ccc1Oc1cncnc1N1CC2(CCN(C[C@H]3CC[C@H](NS(=O)(=O)CC)CO3)CC2)C1)C(C)C [Example 52, N-Ethyl-2-((4-(7-(((2R,5S)-5-(ethylsulfonamido)tetrahydro-2H-pyran-2-yl)methyl)-2,7-diazaspiro[3.5]nonan-2-yl)pyrimidin-5-yl)oxy)-5-fluoro-N-isopropylbenzamide]	–	–	–	–	EC50 (Menin-MLL): ≤ 0.05 µM
CC(C)N(C(=O)c1cc(F)ccc1Oc1cncnc1N1CC2(CCN(C[C@@H]3CC[C@@H](NS(=O)(=O)C(C)C)CO3)CC2)C1)[C@@H]1CCOC1 [Example 132, 5-Fluoro-N-isopropyl-2-((4-(7-(((2S,5R)-5-((1-methylethyl)sulfonamido)tetrahydro-2H-pyran-2-yl)methyl)-2,7-diazaspiro[3.5]nonan-2-yl)pyrimidin-5-yl)oxy)-N-((R)-tetrahydrofuran-3-yl)benzamide]	–	–	–	–	EC50 (Menin-MLL): 0.111 µM
CCS(=O)(=O)N[C@@H]1CC[C@@H](CN2CCC3(CC2)CN(c2ncncc2Oc2ccc(F)cc2C(=O)N(C(C)C)[C@H]2C[C@@H](O)C2)C3)OC1 [Example 50, 2-((4-(7-(((2S,5R)-5-(Ethylsulfonamido)tetrahydro-2H-pyran-2-yl)methyl)-2,7-diazaspiro[3.5]nonan-2-yl)pyrimidin-5-yl)oxy)-5-fluoro-N-((1s,3s)-3-hydroxycyclobutyl)-N-isopropylbenzamide]	< 0.1 µM	< 0.1 µM	–	–	–
CCS(=O)(=O)N[C@@H]1CC[C@@H](CN2CCC3(CC2)CN(c2ncncc2Oc2ccc(F)cc2C(=O)N(C(C)C)[C@H]2C[C@H](F)C2)C3)OC1 [Example 243, 2-((4-(7-(((2S,5R)-5-(Ethylsulfonamido)tetrahydro-2H-pyran-2-yl)methyl)-2,7-diazaspiro[3.5]nonan-2-yl)pyrimidin-5-yl)oxy)-5-fluoro-N-((1r,3r)-3-fluorocyclobutyl)-N-isopropylbenzamide]	< 0.1 µM	–	–	–	Ki (Menin-MLL): < 0.001 µM
CCN(C(=O)c1cc(F)ccc1Oc1cncnc1N1CC2(CCN(C[C@@H]3CC[C@@H](NC(=O)Nc4ccccc4)CO3)CC2)C1)C(C)C [Example 215, N-Ethyl-5-fluoro-N-isopropyl-2-((4-(7-(((2S,5R)-5-(3-phenylureido)tetrahydro-2H-pyran-2-yl)methyl)-2,7-diazaspiro[3.5]nonan-2-yl)pyrimidin-5-yl)oxy)benzamide]	–	–	–	–	Menin-MLL Ki HTRF Assay: EC50 (nM) (Menin-MLL): ++ (250 nM and <100 nM)
CC(C)N(C(=O)c1cc(F)ccc1Oc1cncnc1N1CC2(CCN(C[C@@H]3CC[C@@H](NS(C)(=O)=O)CO3)CC2)C1)C1CC1 [Example 18, N-Cyclopropyl-5-fluoro-N-isopropyl-2-((4-(7-(((2S,5R)-5-(methylsulfonamido)tetrahydro-2H-pyran-2-yl)methyl)-2,7-diazaspiro[3.5]nonan-2-yl)pyrimidin-5-yl)oxy)benzamide]	< 0.1 µM	< 0.1 µM	–	–	–
CCN(C(=O)c1cc(F)ccc1Oc1cncnc1N1CC2(CCN(C[C@@H]3CC[C@@H](NS(=O)(=O)C4CCC4)CO3)CC2)C1)C(C)C [Example 6, 2-((4-(7-(((2S,5R)-5-(Cyclobutanesulfonamido)tetrahydro-2H-pyran-2-yl)methyl)-2,7-diazaspiro[3.5]nonan-2-yl)pyrimidin-5-yl)oxy)-N-ethyl-5-fluoro-N-isopropylbenzamide]	–	< 0.1 µM	+++ (≥66%)	++ (233% and ≤66%)	–
CC(C)N(C(=O)c1cc(F)ccc1Oc1cncnc1N1CC2(CCN(C[C@@H]3CC[C@@H](NS(C)(=O)=O)CO3)CC2)C1)C(C)C [Example 12, 5-Fluoro-N,N-diisopropyl-2-((4-(7-(((2S,5R)-5-(methylsulfonamido)tetrahydro-2H-pyran-2-yl)methyl)-2,7-diazaspiro[3.5]nonan-2-yl)pyrimidin-5-yl)oxy)benzamide]	–	< 0.1 µM	+++ (≥66%)	+++ (≥66%)	hERG % Remaining (hERG; 1 μM compound): +++ (≥66%); hERG % Remaining (hERG; 3 μM compound): +++ (≥66%); hERG % Remaining (hERG; 100 μM compound): ++ (233% and ≤66%)
CC(C)N(C(=O)c1cc(F)ccc1Oc1cncnc1N1CC2(CCN(C[C@@H]3CC[C@@H](NS(=O)(=O)C4CC4)CO3)CC2)C1)C1CC1 [Example 21, 2-((4-(7-(((2S,5R)-5-(Cyclopropanesulfonamido)tetrahydro-2H-pyran-2-yl)methyl)-2,7-diazaspiro[3.5]nonan-2-yl)pyrimidin-5-yl)oxy)-N-cyclopropyl-5-fluoro-N-isopropylbenzamide]	–	< 0.1 µM	++ (233% and ≤66%)	+ (<33%)	–
CC(C)N(C(=O)c1cc(F)ccc1Oc1cncnc1N1CC2(CCN(C[C@@H]3CC[C@@H](NS(=O)(=O)C4CC4)CO3)CC2)C1)C(C)C [Example 15, 2-((4-(7-(((2S,5R)-5-(Cyclopropanesulfonamido)tetrahydro-2H-pyran-2-yl)methyl)-2,7-diazaspiro[3.5]nonan-2-yl)pyrimidin-5-yl)oxy)-5-fluoro-N,N-diisopropylbenzamide]	–	< 0.1 µM	+++ (≥66%)	++ (233% and ≤66%)	hERG % Remaining (hERG; 3 μM compound): +++ (≥66%); hERG % Remaining (hERG; 100 μM compound): + (<33%)
CC(C)N(CC(F)F)C(=O)c1cc(F)ccc1Oc1cncnc1N1CC2(CCN(C[C@@H]3CC[C@@H](NS(=O)(=O)C4CC4)CO3)CC2)C1 [Example 47, 2-((4-(7-(((2S,5R)-5-(Cyclopropanesulfonamido)tetrahydro-2H-pyran-2-yl)methyl)-2,7-diazaspiro[3.5]nonan-2-yl)pyrimidin-5-yl)oxy)-N-(2,2-difluoroethyl)-5-fluoro-N-isopropylbenzamide]	–	< 0.1 µM	+++ (≥66%)	++ (233% and ≤66%)	–
CCS(=O)(=O)N[C@@H]1CC[C@@H](CN2CCC3(CC2)CN(c2ncncc2Oc2ccc(F)cc2C(=O)N(C(C)C)C2CC(F)(F)C2)C3)OC1 [Example 44, N-(3,3-Difluorocyclobutyl)-2-((4-(7-(((2S,5R)-5-(ethylsulfonamido)tetrahydro-2H-pyran-2-yl)methyl)-2,7-diazaspiro[3.5]nonan-2-yl)pyrimidin-5-yl)oxy)-5-fluoro-N-isopropylbenzamide]	–	< 0.1 µM	+++ (≥66%)	++ (233% and ≤66%)	–
CCN(C(=O)c1cc(F)ccc1Oc1cncnc1N1CC2(CCN(C[C@@H]3CC[C@@H](NS(=O)(=O)c4ccccc4)CO3)CC2)C1)C(C)C [Example 45, N-Ethyl-5-fluoro-N-isopropyl-2-((4-(7-(((2S,5R)-5-(phenylsulfonamido)tetrahydro-2H-pyran-2-yl)methyl)-2,7-diazaspiro[3.5]nonan-2-yl)pyrimidin-5-yl)oxy)benzamide]	–	< 0.1 µM	++ (233% and ≤66%)	+ (<33%)	–
